The test system of the experiment is CEM cells HIV-1 protection, formazan growth assay. Put plainly: NCI AIDS Antiviral Assay. The following applies: for IC50: measured here: growth of uninfected CEM cells. Put shortly: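 Five concentrations of each compound were applied to infected and uninfected human CEM cells. Protection from HIV-1 was judged from growth measured with a soluble formazan assay.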

“And” between values parts separate entries of the source, which are not always exact repeats. Equal entries are not always repeated. The source made the active and inactive calls.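 How the source made its calls: active means compounds giving half or more protection of infected cells from virus-caused growth loss, again on retest; inactive means the rest.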 Where a SMILES comes first, the peptide text is derived from it. The star is where a group is joined. Cbz = O=C(OCc1ccccc1)*; Bn = c1ccc(C*)cc1

One may read the EC50 as the concentration needed to bring the measured effect to its halfway point. Broadly, the IC50 is the concentration that inhibits the measured activity by half.

`CN1C(=O)c2ccccc2N=CN1C(=O)Nc1ccccc1`: the EC50 is above 123 µM and the IC50 is above 123 µM.

As for `C=C1CC(C)(Cn2cnc3c(N)ncnc32)OC1=O` (stereo unspecified), the EC50 was above 200 µM and the half-maximal inhibitory concentration (IC50) is 11.2 µM.

On to `CCOC(=O)COc1c(C)cc(SSc2cc(C)c(OCC(=O)OCC)c(C)c2)cc1C`, for which the EC50 is above 200 µM and the IC50 was found to be 12 µM.

With `O=C(NCCNCCNC(=O)C(F)(F)F)C(F)(F)F`, the EC50 is above 200 µM and the IC50 is above 200 µM.

Regarding `CC(C(=O)N1C(=O)N(C(=O)C(C)C(O)c2ccccc2)C(c2ccccc2)C1c1ccccc1)C(O)c1ccccc1` (stereo unspecified), the EC50 was above 200 µM and the IC50 is 28.2 µM.

In the case of `CO[C@H]1C=CO[C@@]2(C)Oc3c(C)c(O)c4c(O)c(c(CN5CCN(C)CC5)c(O)c4c3C2=O)NC(=O)/C(C)=C\C=C[C@H](C)[C@H](O)C(C)[C@@H](O)C(C)[C@H](OC(C)=O)[C@@H]1C` (stereo partly specified), the outcome was inactive.

On to `C=C1CC(c2ccc(OCCCN3C(=O)c4ccccc4C3=O)cc2)OC1=O` (stereo unspecified), for which the EC50 was above 20 µM and the IC50 is 1.7 µM.

With `COc1cccc(NC(=S)/C(=C(\[O-])c2ccc([N+](=O)[O-])cc2)[n+]2ccc(C(C)C)cc2)c1`, the EC50 is above 200 µM and the IC50 is above 200 µM.

For the compound `OC(c1ccccn1)C1CNc2ccccc21` (stereo unspecified), the result was inactive.

Consider `CNC(=O)C(CC(C)C)NC(=O)CNC(=O)C(Cc1ccc(OCc2ccccc2)cc1)NC(=O)C(COCc1ccccc1)NC(C)=O` (stereo unspecified) (Ac-S(Bn)Y(Bn)GL-NHMe; configuration not given here), for which the EC50 is above 200 µM and the IC50 was found to be 37.2 µM.

On to `[O-]c1csc2n(-c3ccccc3)c3ccccc3[n+]12`, for which the EC50 is above 200 µM and the concentration for half-maximal inhibition (IC50) is above 200 µM.

In the case of `S=c1nn[nH]n1-c1ccccc1.[Zn+2]`, the EC50 was above 2.57 µM and the IC50 is above 2.57 µM.

For the compound `CCCCCCCCCCCCCC(=O)O[C@@H]1[C@@H](C)[C@@]2(O)[C@@H](C=C(CO)C[C@]3(O)C(=O)C(C)=C[C@@H]23)[C@@H]2C(C)(C)[C@]12OC(C)=O`, the result was active.

`Cc1cc(C)c(C(=O)c2c(C)ccc(C)c2C(=O)O)c(C)c1` gave a 50% effective concentration (EC50) above 200 µM and an IC50 above 200 µM.

`CC1=[N+]([O-])c2ccccc2C(=O)C1=O`: the result was inactive.

Regarding `Oc1ccc(-c2nc(-c3cccnc3)c(-c3ccc(F)cc3)[nH]2)cc1`, the EC50 is above 200 µM and the IC50 amounted to 30.9 µM.

On to `COc1ccccc1NC(=S)NNC(=O)c1cc(-c2ccccc2)nc2ccccc12`, for which the EC50 is above 200 µM and the concentration for half-maximal inhibition (IC50) came to 11.5 µM.

In the case of `C=[N+]([O-])CC[C@@]1(O)C[C@H](n2ccc(=O)[nH]c2=O)O[C@@H]1CO[Si](C)(C)C(C)(C)C`, the EC50 was above 200 µM and the IC50 amounted to 44.7 µM.

Regarding `Nc1ccn(CC2OCC(CO)O2)c(=O)n1` (stereo unspecified), the EC50 was above 3470 µM; the IC50 was 2950 µM and 3020 µM.

On to `C[C@H]1O[C@@H](c2c(O)ccc3ccccc23)C[C@@H](N(C)C)C1O` (stereo partly specified), for which the EC50 is above 200 µM and the 50% inhibitory concentration (IC50) was found to be 97.7 µM.

In the case of `COC(=O)C1Cc2c([nH]c3ccccc23)-c2[nH]c3ccccc3c2CC(NC(C)=O)C(=O)N2CCCC2C(=O)N1` (stereo unspecified), the EC50 was above 200 µM and the IC50 turned out to be 36.3 µM.

With `O=C1C(=O)N(C2C3CC4CC(C3)CC2C4)C(=O)C(=O)C1c1nc2ccccc2o1` (stereo unspecified), the EC50 is above 91.2 µM and the IC50 was determined as 52.5 µM.

On to `CN(C)c1ccc(C(c2cc3c(cc2O)OCO3)N2CCOCC2)cc1` (stereo unspecified), for which the EC50 was above 72.4 µM and the IC50 was 12.9 µM.

As for `COC(=O)c1nc(N)nc(C(=O)OC)c1C(=O)c1ccccc1`, the EC50 was above 60.3 µM and the concentration for half-maximal inhibition (IC50) is above 60.3 µM.

In the case of `Cc1cc(N(CCC#N)CCC#N)ccc1/C=C1N=C(/C=C\c2ccccc2)OC\1=O`, the EC50 is above 17.8 µM and the IC50 is above 17.8 µM.

As to `CC(=O)Nc1ccc2cc(-c3ccc(Cl)cc3)c3nnnn3c2n1`, the EC50 was above 200 µM and the half-maximal inhibitory concentration (IC50) is above 200 µM.

On to `COc1cc([N+](=O)[O-])c(OC)c2c(Nc3ccc(S(=O)(=O)O)c4cc(S(=O)(=O)O)cc(S(=O)(=O)O)c34)cc(C)nc12`, for which the EC50 was above 200 µM and the IC50 was above 200 µM.

With `CC(=O)Nc1ccc(-c2nnc(SCC(=O)Nc3ccc(C)cc3)o2)cc1`, the EC50 was above 67.6 µM and the IC50 came out at 11.7 µM.

Take `C(=Nc1ccc(SSc2ccc(N=Cc3ccc4c(c3)OCO4)cc2)cc1)c1ccc2c(c1)OCO2`: the EC50 was above 200 µM and the concentration for half-maximal inhibition (IC50) is 23.4 µM.

Take `CCc1c(Cc2cc(C)cc(C)c2)n(COCCC[Se]c2ccccc2)c(=O)[nH]c1=O`: the EC50 is 0.407 µM and the IC50 is 12 µM.

As to `C/C(O)=C(\N=O)C(=O)NCCc1ccccc1`, the EC50 was above 288 µM and the half-maximal inhibitory concentration (IC50) is above 288 µM.

On to `O=c1nc2n(c3nsnc13)CCO2`, for which the EC50 was above 132 µM and the 50% inhibitory concentration (IC50) was above 132 µM.

Turning to `O=C1c2c(ccc3c2CCCC3)CC12Cc1ccccc1C2`, the EC50 is above 200 µM and the IC50 came to 22.4 µM.

Regarding `O=C1Cc2ccccc2N1/N=C\c1ccc(O)cc1`, the EC50 is above 372 µM and the IC50 was 39.8 µM.

Regarding `O=C(O)CCSC(=S)Nc1ccccc1`, the result was inactive.

Turning to `COc1ccc(-c2sc(N)c(C#N)c2C)cc1OC`, the outcome was inactive.

On to `O=C(c1ccccc1)n1cc(-c2ccccc2)c2c(=O)[nH]cnc21`, for which the EC50 is above 200 µM and the IC50 is above 100 µM.

Regarding `N#Cc1c(=O)c2cc([N+](=O)[O-])ccc2n2c1[nH]c1ccccc12`, the EC50 is above 200 µM and the IC50 was 3.55 µM.

Take `c1ccc([As](c2ccccc2)c2cccc[c]2[Bi]([c]2ccccc2)[c]2ccccc2)cc1`: the EC50 was above 10.7 µM and the IC50 was above 10.7 µM.

Take `CCCCN(CCCC)C(=O)C(=O)C(C)C(=O)CC` (stereo unspecified): the result was inactive.

For `O=C(O)COc1cccc2ccccc(=O)c12`, the EC50 is above 200 µM and the IC50 was above 200 µM.

Take `Cc1cc(=O)n2c(n1)Nc1ccc(Cl)cc1C2`: the EC50 is above 52.5 µM and the half-maximal inhibitory concentration (IC50) was above 52.5 µM.

As to `O=C1OC2C3Cc4ccccc4N2C1C3` (stereo unspecified), the EC50 was above 646 µM and the half-maximal inhibitory concentration (IC50) is 363 µM.

As to `Cc1c(CN2CCOCC2)cc(C(C)C)c(O)c1CN1CCOCC1`, the EC50 was above 200 µM and the IC50 is above 200 µM.

Take `C#CCSc1nnnn1-c1ccc(Br)c(C)c1`: the EC50 was above 200 µM.

In the case of `CON(C)C(=O)CCCO`, the EC50 is above 1700 µM and the concentration for half-maximal inhibition (IC50) was above 1700 µM.

In the case of `Cc1ccc(C(=O)c2ccccc2C(=O)O)cc1C`, the 50% effective concentration (EC50) was above 200 µM and the IC50 was above 200 µM.

As for `C/C(=N\NC(=S)N1CCN(c2ccccn2)CC1)c1cccc2cccnc12`, the EC50 is above 45.7 µM and the IC50 is 0.0417 µM.

Regarding `Cc1[nH]c(=O)n2c(C)nnc2c1C(=O)Nc1cc(Cl)cc(Cl)c1`, the result was inactive.

`CCOC(=O)C1=C(C)C2C3C(=O)OC(=O)C3C1(C)C1C(=O)OC(=O)C21` (stereo unspecified): the outcome was inactive.

`CCCCCCSCC/C(C)=N\OC`: the EC50 was above 200 µM and the IC50 is above 200 µM.

For the compound `CNCC(=O)NC(CO)C(=O)NC1C(C(N)=O)OC(n2ccc(N)nc2=O)C(O)C1O` (stereo unspecified), the outcome was inactive.

Consider `CC(Nc1cccc(Cl)c1)c1ccncc1` (stereo unspecified), for which the EC50 was above 200 µM and the half-maximal inhibitory concentration (IC50) came to 95.5 µM.

With `O=C(O)/C=C/C(=O)Nc1ccccc1`, the EC50 is above 200 µM and the half-maximal inhibitory concentration (IC50) was above 200 µM.

Regarding `CC12CCC(=O)N1c1ccc([N+](=O)[O-])cc1N2` (stereo unspecified), the outcome was inactive.

For the compound `O=c1ccn(C/C=N/OCCP(=O)(O)O)c(=O)[nH]1`, the EC50 is above 200 µM and the IC50 was above 200 µM.

Regarding `Nc1nc(Cl)cc(NCC2(CO)CCC2)n1`, the EC50 is above 200 µM and the IC50 was found to be 191 µM.

Regarding `N#CC(O)CCOCc1ccccc1` (stereo unspecified), the EC50 is above 200 µM and the IC50 came to 53.7 µM.

For the compound `O=C(Nc1ccc(S(=O)(=O)N[C@@H](C(=O)O)c2ccccc2)cc1)c1ccc(F)cc1`, the result was inactive.

As to `CC1C(=O)OC2C=CC3(C)C(=O)OC4OC5(c6ccoc6)CC1(O)C2(C)C43O5` (stereo unspecified), the EC50 was above 200 µM and the IC50 is above 200 µM.

Regarding `S=C(NNc1ccccc1)SSSC(=S)NNc1ccccc1`, the EC50 was above 200 µM and the IC50 stood at 26.3 µM.

On to `O=C1NC(=O)C2C1N(Cc1ccccc1)C(=O)N2Cc1ccccc1` (stereo unspecified), for which the EC50 is above 107 µM and the 50% inhibitory concentration (IC50) is above 107 µM.

With `COC(=O)c1c2oc3c(C(=O)OC)cccc3nc-2cc(N)c1=O`, the result was inactive.

For the compound `O=C1OC(=O)C2C3C=CC(C12)C1C2C=CC2C31` (stereo unspecified), the outcome was inactive.

For the compound `CN(C)P(=S)(CCPc1ccccc1)N(C)C` (stereo unspecified), the EC50 was above 18.2 µM and the IC50 is above 18.2 µM.

For `c1ccc(N=C2SC(c3ccccc3)(c3ccccc3)c3ccccc32)cc1`, the EC50 is above 200 µM and the IC50 is above 200 µM.

As to `COc1ccc(/C=C\c2cc(OC)c(OC)c(OC)c2)cc1O`, the EC50 is above 214 µM and the half-inhibitory concentration (IC50) came to 0.0692 µM.

Consider `O=C(O)CCC(NC(=O)OCc1ccccc1)C(=O)NC(Cc1cnc[nH]1)C(=O)O` (stereo not drawn) (Cbz-Glu-His-OH; configuration not given here), for which the EC50 was above 200 µM and the half-maximal inhibitory concentration (IC50) was above 200 µM.

Regarding `CCOC(=O)C(=O)Nc1c(C)cccc1CC`, the EC50 was above 776 µM and the IC50 was above 776 µM.

`CC(=O)Oc1ccc(/C=C/S(=O)(=O)CS(=O)(=O)/C=C/c2ccc(OC(C)=O)c(OC(C)=O)c2)cc1OC(C)=O`: the EC50 was above 20 µM and the IC50 was found to be 11 µM.

`COC/C=C\[C@@]1(O)CCCC[C@@H]1CC(OC)OC`: the EC50 is above 200 µM and the IC50 is 1.23 µM.

Take `CCC(C#N)(c1ccccc1)N(CCc1ccccc1)C(=O)c1ccccc1` (stereo unspecified): the EC50 was above 200 µM and the half-maximal inhibitory concentration (IC50) was 191 µM.

In the case of `O=C(OC(C(=O)O)C(OC(=O)c1ccccc1)C(=O)O)c1ccccc1` (stereo unspecified) (tested in a mixture with another compound), the EC50 is above 380 µM and the half-maximal inhibitory concentration (IC50) came out at 0.912 µM.

Source of the values: PubChem BioAssay AID179 (DTP/NCI, 2004).
